Measurements taken from patent publication US8013053B2, “Water-based inks for ink-jet printing” (Kao Corporation, priority 2005, dated 2011).

Legend:
[1] = Solubility of nonionic organic compound in water; format: physicochemical; conditions: for solubility in 100 g of water: 25° C.; for Solubility: in 100 g of water at 25° C.
From the text: (3) Method of Measuring Solubility of Nonionic Organic Compound

[2] = Surface tension of water containing nonionic organic compound; format: physicochemical; conditions: 25° C.; for Surface tension: water containing 0.001% by weight of the nonionic organic compound
From the text: (4) Method of Measuring Surface Tension of Water Containing Nonionic Organic Compound

Molecule | solubility in 100 g of water [1] | Solubility [1] | surface tension of water containing 0.001% by weight of the nonionic organic compound [2] | Surface tension [2]
CCCCCCCCC(O)CO (stereo not drawn) [1,2-decanediol] | 0.055 g | 0.055 g/100 g | 55 mN/m | 55 mN/m
CCCCCCCCCCC(O)CO (stereo not drawn) [1,2-dodecanediol] | 0.001 g | 0.001 g/100 g | 47.1 mN/m | 47.1 mN/m
OCCCCCCCCO [1,8-octanediol, reference compound] | – | 1 g/100 g | – | 70.7 mN/m
Decanoic acid monogriceride | – | – | 65 mN/m | 65 mN/m
CCCCCCC(O)CO (stereo not drawn) [1,2-octanediol] | 0.20 g | 0.2 g/100 g | 65 mN/m | 65 mN/m
CCCCC(O)CO (stereo not drawn) [1,2-hexanediol, reference compound] | – | ≧6 g/100 g | – | 71.2 mN/m
CCCCC(CC)COCC(O)CO (stereo not drawn) [2-ethylhexyl monoglyceryl ether] | 0.15 g | 0.15 g/100 g | 62 mN/m | 62 mN/m
Lauric acid monogriceride | 0.005 g | 0.12 g/100 g | 63 mN/m | 63 mN/m
CC(C)CCCCCCCOCC(O)CO (stereo not drawn) [Isodecyl monoglyceryl ether] | 0.05 g | 0.05 g/100 g | 57.8 mN/m | 57.8 mN/m
